Tests used:
D(4) dopamine receptor [1] = target: T1, D(4) dopamine receptor (Homo sapiens, UniProt P21917); assay: Displacement of [3H]-YM 09151 from D4 receptor
T1 sequence (P21917 whole entry): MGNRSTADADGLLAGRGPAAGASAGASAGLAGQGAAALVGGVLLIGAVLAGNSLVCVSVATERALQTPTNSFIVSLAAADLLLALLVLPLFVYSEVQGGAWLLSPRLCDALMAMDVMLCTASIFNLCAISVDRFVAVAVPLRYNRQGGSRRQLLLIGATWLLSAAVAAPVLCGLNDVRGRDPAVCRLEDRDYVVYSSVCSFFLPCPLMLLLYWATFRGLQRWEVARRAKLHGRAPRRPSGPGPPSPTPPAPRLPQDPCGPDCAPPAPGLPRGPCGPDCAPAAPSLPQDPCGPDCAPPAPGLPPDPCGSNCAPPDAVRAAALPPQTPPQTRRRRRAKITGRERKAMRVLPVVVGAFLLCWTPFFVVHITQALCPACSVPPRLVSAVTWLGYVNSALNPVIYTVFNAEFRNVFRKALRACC

[2] = target: T2, Adrenergic receptor alpha-1 (Rattus norvegicus, UniProt P15823+P23944+P43140); assay: Displacement of [3H]prazosin from alpha-1 adrenergic receptor of rat brain homogenate
T2 sequence (P15823 whole entry): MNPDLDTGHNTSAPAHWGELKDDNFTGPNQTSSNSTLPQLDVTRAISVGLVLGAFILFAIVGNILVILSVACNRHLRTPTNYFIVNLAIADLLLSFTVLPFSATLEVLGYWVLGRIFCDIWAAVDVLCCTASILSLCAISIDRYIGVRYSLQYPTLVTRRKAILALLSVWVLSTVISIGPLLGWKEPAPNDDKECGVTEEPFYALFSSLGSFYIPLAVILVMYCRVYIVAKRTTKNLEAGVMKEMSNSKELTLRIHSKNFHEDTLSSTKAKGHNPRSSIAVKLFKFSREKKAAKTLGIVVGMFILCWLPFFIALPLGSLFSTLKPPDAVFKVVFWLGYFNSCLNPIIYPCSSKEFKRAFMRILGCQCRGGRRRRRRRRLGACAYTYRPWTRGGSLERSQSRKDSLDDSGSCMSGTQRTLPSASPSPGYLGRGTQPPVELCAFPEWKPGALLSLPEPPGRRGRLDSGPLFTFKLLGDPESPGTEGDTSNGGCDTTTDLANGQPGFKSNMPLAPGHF
T2 sequence (P23944 whole entry): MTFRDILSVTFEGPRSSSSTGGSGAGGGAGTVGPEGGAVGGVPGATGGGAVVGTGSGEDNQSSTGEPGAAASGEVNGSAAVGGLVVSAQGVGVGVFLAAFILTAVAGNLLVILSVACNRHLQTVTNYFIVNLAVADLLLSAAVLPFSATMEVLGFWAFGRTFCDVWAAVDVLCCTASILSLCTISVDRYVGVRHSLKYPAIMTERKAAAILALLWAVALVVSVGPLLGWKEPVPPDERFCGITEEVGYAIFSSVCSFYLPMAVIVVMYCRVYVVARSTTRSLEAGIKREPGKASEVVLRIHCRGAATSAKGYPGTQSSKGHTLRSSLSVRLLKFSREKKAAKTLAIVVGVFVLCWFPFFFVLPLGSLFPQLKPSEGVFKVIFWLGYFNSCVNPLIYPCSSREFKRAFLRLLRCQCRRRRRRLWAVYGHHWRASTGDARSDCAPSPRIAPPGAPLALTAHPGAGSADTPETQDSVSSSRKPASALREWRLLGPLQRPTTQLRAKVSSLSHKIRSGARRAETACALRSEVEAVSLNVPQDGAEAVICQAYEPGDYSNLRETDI
T2 sequence (P43140 whole entry): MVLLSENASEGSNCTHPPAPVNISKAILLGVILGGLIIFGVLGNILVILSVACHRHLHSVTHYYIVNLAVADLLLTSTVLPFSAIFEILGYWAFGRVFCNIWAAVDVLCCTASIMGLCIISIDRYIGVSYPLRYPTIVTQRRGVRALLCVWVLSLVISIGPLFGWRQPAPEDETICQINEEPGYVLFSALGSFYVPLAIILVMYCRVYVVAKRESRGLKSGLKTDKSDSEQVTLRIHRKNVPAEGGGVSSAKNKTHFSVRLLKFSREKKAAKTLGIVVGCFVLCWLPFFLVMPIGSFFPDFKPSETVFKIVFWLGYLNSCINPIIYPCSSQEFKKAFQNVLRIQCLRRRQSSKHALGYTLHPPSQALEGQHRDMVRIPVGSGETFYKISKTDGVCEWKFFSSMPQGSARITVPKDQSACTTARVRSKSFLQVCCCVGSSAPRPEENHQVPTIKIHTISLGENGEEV

D(2) dopamine receptor [3] = target: T3, D(2) dopamine receptor (Homo sapiens, UniProt P14416); assay: Displacement of [3H]-YM 09151 from D2 receptor
D(2) dopamine receptor [4] = target: T3, D(2) dopamine receptor; assay: D2 receptor functional activity was measured through reversal of quinpirole inhibited, forskolin stimulated cAMP production from whole cells
D(4) dopamine receptor [5] = target: T1, D(4) dopamine receptor; assay: D4 receptor functional activity was measured inhibition of quinpirole stimulated [35S]GTP-gamma-S binding from cell membranes.

T3 sequence (P14416 whole entry): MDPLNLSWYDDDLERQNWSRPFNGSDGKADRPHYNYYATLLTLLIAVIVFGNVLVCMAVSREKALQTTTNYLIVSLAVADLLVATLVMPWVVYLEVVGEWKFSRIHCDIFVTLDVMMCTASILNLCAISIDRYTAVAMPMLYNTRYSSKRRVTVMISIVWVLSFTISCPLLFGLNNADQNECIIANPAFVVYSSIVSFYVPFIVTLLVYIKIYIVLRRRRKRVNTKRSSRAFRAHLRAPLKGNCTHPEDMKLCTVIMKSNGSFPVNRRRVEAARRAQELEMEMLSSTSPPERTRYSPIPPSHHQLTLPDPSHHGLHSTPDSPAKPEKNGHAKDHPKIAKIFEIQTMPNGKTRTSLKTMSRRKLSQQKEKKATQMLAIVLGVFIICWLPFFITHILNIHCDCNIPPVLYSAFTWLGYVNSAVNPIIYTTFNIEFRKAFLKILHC

SMILES | Ki (D(4) dopamine receptor [1]) | Ki [2] | Ki (D(2) dopamine receptor [3]) | Ki (D(2) dopamine receptor [4]) | Ki (D(4) dopamine receptor [5])
Cc1ccc(CN2CCN(C3CCc4cccc5c4N(C3=O)C(C)(C)C5)CC2)cc1 (configuration not stated) | 12 nM | 490 nM | 165 nM | – | –
COc1ccc(Cl)cc1CN1CCN(C2CCc3cccc4c3N(C2=O)C(C)(C)C4)CC1 (configuration not stated) | 29 nM | 1056 nM | 220 nM | – | –
Cc1ccc(CN2CCN(C3CCc4cccc5c4N(CC5)C3=O)CC2)cc1 (configuration not stated) | – | 1361 nM | 209 nM | – | –
CC1Cc2cccc3c2N1C(=O)C(N1CCN(Cc2ccc(Cl)cc2)CC1)CC3 (configuration not stated) | – | 1000 nM | 139 nM | – | –
CC1(C)Cc2cccc3c2N1C(=O)C(N1CCN(Cc2ccc(Cl)cc2)CC1)CC3 (configuration not stated) | – | 1735 nM | – | – | –
COc1ccc(C)cc1CN1CCN(C2CCc3cccc4c3N(C2=O)C(C)(C)C4)CC1 (configuration not stated) | 65 nM | 983 nM | 313 nM | – | –
Cc1ccc(CN2CCN(C3CCc4cccc5c4N(C3=O)C(C)C5)CC2)cc1 (configuration not stated) | 10 nM | 1000 nM | 26 nM | – | –
COc1cc(C)ccc1CN1CCN(C2CCc3cccc4c3N(C2=O)C(C)(C)C4)CC1 (configuration not stated) | 34 nM | 653 nM | 952 nM | – | –
O=C1C(N2CCN(Cc3ccc(Cl)cc3)CC2)CCc2cccc3c2N1CC3 (configuration not stated) | 5 nM | 2284 nM | 116 nM | 62 nM | 3 nM
CCN1C(=O)C(N2CCN(Cc3ccc(Cl)cc3)CC2)CCc2ccccc21 (configuration not stated) | – | 2678 nM | – | – | –
CCN1C(=O)C(N2CCN(Cc3ccc(Cl)cc3)CC2)Cc2ccccc21 (configuration not stated) | – | 1265 nM | – | – | –

From ChEMBL document CHEMBL1136593, “Design, synthesis, and discovery of 5-piperazinyl-1,2,6,7-tetrahydro-5H-azepino[3,2,1-hi]indol-4-one derivatives: a novel series of mixed dopamine D2/D4 receptor antagonist” (Bioorg Med Chem Lett, 2003)
